ChEMBL document CHEMBL3286334, “Identification of tetrapeptides from a mixture based positional scanning library that can restore nM full agonist function of the L106P, I69T, I102S, A219V, C271Y, and C271R human melanocortin-4 polymorphic receptors (hMC4Rs)” (J Med Chem, 2014)

How the values were obtained:
Type in all cases: functional, cell-based
Melanocortin receptor 5 = Melanocortin receptor 5 (Mus musculus, UniProt P41149); assay: Agonist activity at mouse melanocortin-5 receptor expressed in HEK293 cells co-transfected with CRE/beta-galactosidase reporter gene assessed as stimulatory response after 6 hrs
Melanocortin receptor 4 [1] = target: T1, Melanocortin receptor 4 (Homo sapiens, UniProt P32245); assay: Agonist activity at wild type human melanocortin-4 receptor expressed in HEK293 cells co-transfected with CRE/beta-galactosidase reporter gene assessed as stimulatory response after 6 hrs
Melanocortin receptor 4 [2] = target: Melanocortin receptor 4 (Homo sapiens, UniProt P32245, L106P); assay: Agonist activity at human melanocortin-4 receptor L106P mutant expressed in HEK293 cells co-transfected with CRE/beta-galactosidase reporter gene assessed as stimulatory response after 6 hrs
Melanocortin receptor 4 [3] = target: Melanocortin receptor 4 (Homo sapiens, UniProt P32245, A219V); assay: Agonist activity at human melanocortin-4 receptor A219V mutant expressed in HEK293 cells co-transfected with CRE/beta-galactosidase reporter gene assessed as stimulatory response after 6 hrs
Melanocortin receptor 4 [4] = target: Melanocortin receptor 4 (Homo sapiens, UniProt P32245, C271R); assay: Agonist activity at human melanocortin-4 receptor C271R mutant expressed in HEK293 cells co-transfected with CRE/beta-galactosidase reporter gene assessed as stimulatory response after 6 hrs
[5] = target: Melanocyte-stimulating hormone receptor (Mus musculus, UniProt Q01727); assay: Agonist activity at mouse melanocortin-1 receptor expressed in HEK293 cells co-transfected with CRE/beta-galactosidase reporter gene assessed as stimulatory response after 6 hrs
Melanocortin receptor 4 [6] = target: Melanocortin receptor 4 (Mus musculus, UniProt P56450); assay: Agonist activity at mouse melanocortin-4 receptor expressed in HEK293 cells co-transfected with CRE/beta-galactosidase reporter gene assessed as stimulatory response after 6 hrs
Melanocortin receptor 4 [7] = target: Melanocortin receptor 4 (Homo sapiens, UniProt P32245, I102S); assay: Agonist activity at human melanocortin-4 receptor I102S mutant expressed in HEK293 cells co-transfected with CRE/beta-galactosidase reporter gene assessed as stimulatory response after 6 hrs
Melanocortin receptor 4 [8] = target: Melanocortin receptor 4 (Homo sapiens, UniProt P32245, C271Y); assay: Agonist activity at human melanocortin-4 receptor C271Y mutant expressed in HEK293 cells co-transfected with CRE/beta-galactosidase reporter gene assessed as stimulatory response after 6 hrs
Melanocortin receptor 4 [9] = target: Melanocortin receptor 4 (Homo sapiens, UniProt P32245, I69T); assay: Agonist activity at human melanocortin-4 receptor I69T mutant expressed in HEK293 cells co-transfected with CRE/beta-galactosidase reporter gene assessed as stimulatory response after 6 hrs
[10] = tested on: Melanocortin receptor 4 (Homo sapiens), P32245 [L106P]; assay: Agonist activity at human melanocortin-4 receptor L106P mutant expressed in HEK293 cells co-transfected with CRE/beta-galactosidase reporter gene assessed as stimulatory response at 100 uM after 6 hrs
Melanocortin receptor 4 [11] = target: T1, Melanocortin receptor 4; assay: Agonist activity at wild type human melanocortin-4 receptor expressed in HEK293 cells co-transfected with CRE/beta-galactosidase reporter gene assessed as stimulatory response at 100 uM after 6 hrs
[12] = tested on: Melanocortin receptor 4 (Homo sapiens), P32245 [L106P]; assay: Agonist activity at human melanocortin-4 receptor L106P mutant expressed in HEK293 cells co-transfected with CRE/beta-galactosidase reporter gene assessed as stimulatory response at 10 uM after 6 hrs

Compound	EC50 (Melanocortin receptor 5) [nM]	EC50 (Melanocortin receptor 4 [1]) [nM]	EC50 (Melanocortin receptor 4 [2]) [nM]	EC50 (Melanocortin receptor 4 [3]) [nM]	EC50 (Melanocortin receptor 4 [4]) [nM]	EC50 [5] [nM]	EC50 (Melanocortin receptor 4 [6]) [nM]	EC50 (Melanocortin receptor 4 [7]) [nM]	EC50 (Melanocortin receptor 4 [8]) [nM]	EC50 (Melanocortin receptor 4 [9]) [nM]	Activity [10] [%]	Activity (Melanocortin receptor 4 [11]) [%]	Activity [12] [%]
CC(=O)N[C@@H](CCCNC(=N)N)C(=O)N[C@H](Cc1ccc(Cl)cc1)C(=O)N1Cc2ccccc2C[C@H]1C(=O)N[C@H](Cc1ccc([N+](=O)[O-])cc1)C(N)=O	1	0.21	3.4	4.2	3390	22	7.6	4.4	470	5.2	–	–	–
CC(=O)N[C@@H](Cc1c[nH]cn1)C(=O)N[C@H](Cc1ccc(I)cc1)C(=O)N1Cc2ccccc2C[C@H]1C(=O)N[C@H](Cc1ccc([N+](=O)[O-])cc1)C(N)=O	0.84	0.24	10	4.5	295	2.9	2.4	14	190	3.8	–	–	–
CC(=O)N1Cc2ccccc2CC1C(=O)N[C@H](Cc1ccc(I)cc1)C(=O)N1Cc2ccccc2CC1C(=O)N1Cc2ccccc2CC1C(N)=O (stereo partly drawn)	–	–	–	–	–	–	–	–	–	–	50	50	–
CC(=O)N1Cc2ccccc2CC1C(=O)N[C@H](Cc1ccc(I)cc1)C(=O)N1Cc2ccccc2CC1C(=O)N[C@@H](Cc1ccc(I)cc1)C(N)=O (stereo partly drawn)	–	–	–	–	–	–	–	–	–	–	–	–	70
CC(=O)N[C@@H](Cc1c[nH]cn1)C(=O)N[C@H](Cc1ccc(Cl)cc1)C(=O)N1Cc2ccccc2C[C@H]1C(=O)N[C@H](Cc1ccc([N+](=O)[O-])cc1)C(N)=O	0.63	0.4	15	2.8	130	4	5.2	3	82	4.3	–	–	–
